We go through 84 compounds from PubChem BioAssay AID977628 (Broad Institute, 2014).

Records with an inconclusive call do not appear. Calls of active or inactive are those of the source.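 Rule for the calls: active = compound lowering the normal-ribosome reporter at least twice as much as the humanized-ribosome reporter, growth loss under a set limit; inconclusive = no clear call, values can overlap the other calls; inactive = the rest.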 Bounds are passed on as bounds.

The subject of the first assay is E. coli WT GFP strain growth, fluorescence, 24 h. The assay can be described thus: growth of wild-type and h24-humanized E. coli strains – h24 mutant RFP vs wild-type GFP, cherry-pick, dose response (AID 977628).
Conditions: not given
One may read the AC50 as the concentration giving half of the maximal activity seen. For `Cc1ccc(N2C(=O)NC(NS(=O)(=O)c3ccccc3)(C(F)(F)F)C2=O)cc1C` (stereo not given), the AC50 is > 100 µM (inactive). The same measure, in the same setting: for `COC(=O)c1ccc(CN2CCCC(CO)(Cc3ccccc3F)C2)cc1` (stereo not given) the value was > 100 µM (inactive); for `Cc1cccc(OCCC(=O)N(C)CC(=O)Nc2cccc3ccccc23)c1`, > 100 µM (inactive); for `CC1=Nc2cc(C(=O)NCC3CCCO3)ccc2Sc2ccc(Br)cc21` (stereo not given), > 100 µM (inactive). As to `COc1ccc(-c2csc3ncn(-c4ccc(C)cc4)c(=O)c23)cc1OC`, the AC50 was > 100 µM (inactive). Consider `CC(=O)c1ccc(N2CCN(C(=O)C3CCN(S(=O)(=O)c4ccc5c(c4)CC(C)N5C(C)=O)CC3)CC2)cc1` (stereo not given), for which the AC50 was > 100 µM (inactive).

`O=C1CCCN1CCCNc1ncnc2c1[nH]c1ccc(Cl)cc12`: the AC50 was > 100 µM (inactive). Regarding `COc1cccc(C2c3cc4c(cc3OC(N3CCCC3)C2C)OCO4)c1O` (stereo not given), the AC50 was > 100 µM (inactive). The same measure, in the same setting: the same measure for `COc1ccccc1-c1ccc(SCc2ccc(F)cc2)nn1`: > 100 µM (inactive). For the compound `O=C(O)c1ccc(Oc2ccc([N+](=O)[O-])cc2)c([N+](=O)[O-])c1`, the AC50 is > 100 µM (inactive).

As to `COc1ccc(CNc2ccc([N+](=O)[O-])cc2C)cc1`, the AC50 was > 100 µM (inactive).

Turning to `O=c1[nH]c(C2CCN(S(=O)(=O)c3ccc4c(c3)OCCO4)CC2)nc2c1nnn2Cc1ccccc1F`, the AC50 was > 100 µM (inactive). With `CCOC(=O)c1csc(NC(=O)CC2CCCC2)n1`, the AC50 was > 100 µM (inactive). For `COc1cccc(NC2=Nc3cccc4cccc2c34)c1`, the AC50 is > 100 µM (inactive). Take `COc1cc(OC)cc(C(=O)N[C@H](C(=O)OCC(=O)Nc2ccc(F)c(F)c2F)C(C)C)c1`: the AC50 was > 100 µM (inactive). The same measure, in the same setting: for `CC(C(=O)Nc1nc2ccccc2s1)n1cc([N+](=O)[O-])cn1` (stereo not given) the value was > 100 µM (inactive); for `COc1cc(O)c2c(c1)/C=C/C[C@H](O)[C@H](O)C(=O)CCC[C@H](C)OC2=O`, > 100 µM (inactive). The same measure, in the same setting: the same measure for `O=C1c2ccccc2C(=O)N1CCc1c[nH]c2ccccc12`: > 100 µM (inactive); for `C=CCN(c1ccccc1)S(=O)(=O)c1cccc2cccnc12`: > 100 µM (inactive). Still for that read-out and setting: for `O=C(Nc1ccc2c(c1)OCCO2)c1cccnc1Oc1ccc(Cl)cc1` the value was > 100 µM (inactive); for `CSc1ccccc1NC(=O)c1ccccc1N(Cc1ccccc1)S(C)(=O)=O`, > 100 µM (inactive). As for `CCOC(=O)c1cnc2c(cnn2C)c1NCc1ccc(OC)cc1`, the AC50 is > 100 µM (inactive). On the same count and under the same terms, the same measure for `COc1ccc(N2C(=O)C3C(C2=O)C3(c2ccccc2)c2ccccc2)cc1` (stereo not given): > 100 µM (inactive); for `N#Cc1ccc(OCC(=O)N2CCN(S(=O)(=O)c3ccc(Cl)s3)CC2)cc1`: > 100 µM (inactive); for `COc1ccc(OC)c(S(=O)(=O)Nc2cccc3ccccc23)c1`: > 100 µM (inactive). On the same count and under the same terms, the same measure for `COC(=O)c1ccc2nc(-c3cccc(Br)c3)c(Cc3ccsc3)n2c1`: > 100 µM (inactive).

With `COc1ccc(OC2C(=O)N(Cc3ccc4c(c3)OCO4)C2c2sccc2C)cc1` (stereo not given), the AC50 is > 100 µM (inactive).

With `CCC(C)C(=O)Nc1nc2ccc(OC)cc2s1` (stereo not given), the AC50 is > 100 µM (inactive). Same read-out and setting: for `COc1ccc(OC)c(-c2nn(-c3ccccc3)cc2C(=O)N2CCc3ccccc3C2)c1` the value was > 100 µM (inactive); for `COc1ccc(OC)c(-c2nnc3n2N=C(c2ccc(OC)c(OC)c2)CS3)c1`, > 100 µM (inactive). Same read-out and setting: the same measure for `CC(CCC(=O)O)C1CC[C@@]2(C)C3C(=O)CC4C(C)(C)C(O)CC[C@]4(C)C3C(=O)C[C@]12C` (stereo not given in full): > 100 µM (inactive). As to `O=C(Cc1cccc(NC(=O)C2CCN(C(=O)C3CCCCC3)CC2)c1)Nc1cccc(C(=O)N2CCCC2)c1`, the AC50 is > 100 µM (inactive). In the case of `O=S1(=O)N[C@H](Cc2ccccc2)COc2cccc(N3CCC[C@H]3CO)c21`, the AC50 was > 100 µM (inactive).

`CCn1nc(C)cc1C(=O)N1CCCC(C(=O)c2ccc3ccccc3c2)C1` (stereo not given): the AC50 is > 100 µM (inactive).

With `Cc1ccc(C(=O)Nc2cccc(N(C)S(C)(=O)=O)c2)cc1S(=O)(=O)Nc1ccccc1`, the AC50 is > 100 µM (inactive). For the compound `NC(=O)c1nsc(C(=O)N(c2ccccc2F)C(C(=O)NCc2ccc(F)cc2)c2ccc(O)cc2)c1N` (stereo not given), the AC50 was > 100 µM (inactive). Still for that read-out and setting: for `Cc1ccc2nc(SCC(=O)c3ccc(O)cc3O)[nH]c2c1` the value was > 100 µM (inactive); for `CC1(C)CC(=O)c2cnc(N3CCc4ccccc43)nc2C1`, > 100 µM (inactive). Consider `Cc1ccccc1-n1nnnc1SCCCC(=O)c1ccc(F)cc1`, for which the AC50 is > 100 µM (inactive). On the same count and under the same terms, the same measure for `O=C(O)c1ccccc1Nc1cc(Cl)c2nonc2c1[N+](=O)[O-]`: > 100 µM (inactive); for `COc1ccccc1NC(=O)CSc1nccn1Cc1ccc(F)cc1`: > 100 µM (inactive); for `CCCc1c(C(=O)Nc2ccc(OC)cc2)cnn1-c1ccccc1`: > 100 µM (inactive). As to `CC(=O)OC1N=C(c2ccccc2Cl)c2cc(Br)ccc2NC1=O` (stereo not given), the AC50 was > 100 µM (inactive). In the case of `O=C(c1cc(COc2ccc(F)cc2F)on1)N1CCCC(c2ccccc2)C1` (stereo not given), the AC50 is > 100 µM (inactive). As for `Nc1nn(-c2ccccc2)c2ccc([N+](=O)[O-])cc12`, the AC50 is > 100 µM (inactive).

Consider `COc1ccc(OC)c(N(CC(=O)Nc2ccccc2F)S(=O)(=O)c2ccccc2)c1`, for which the AC50 was > 100 µM (inactive). As to `CCN(CC)S(=O)(=O)c1cc(NS(=O)(=O)c2cccc(Cl)c2Cl)ccc1C`, the AC50 is > 100 µM (inactive). Regarding `COc1ccc(C(=O)C2CCCN(C(=O)c3noc4c3CCCC4)C2)cc1F` (stereo not given), the AC50 was > 100 µM (inactive).

Regarding `c1cncc(-c2nc3cc4ccccc4cc3[nH]2)c1`, the AC50 is > 100 µM (inactive). On the same count and under the same terms, the same measure for `O=C(O)CCN(Cc1ccccc1)S(=O)(=O)c1ccccc1Cl`: > 100 µM (inactive). Regarding `CC(=O)N1CCOc2ccc(S(=O)(=O)N(C)c3ccc(C)cc3)cc21`, the AC50 is > 100 µM (inactive). Regarding `Cc1cccc(NC(=O)CC23CC4CC(C2)CC(n2nnc(C)n2)(C4)C3)c1`, the AC50 was > 100 µM (inactive). Regarding `CSC1=NCCN1C(=O)Cc1ccc(-c2ccccc2)cc1`, the AC50 was > 100 µM (inactive).

On to `O=C(Cn1cnc2ccccc21)c1ccc(Br)cc1`, for which the AC50 is > 100 µM (inactive).

On to `O=C(O)c1nn2c(C(F)(F)F)cc(-c3cccs3)nc2c1Cl`, for which the AC50 was > 100 µM (inactive). For the compound `O=C(NCc1cccnc1)c1ccc(COc2ccc3c(c2)CCC3)o1`, the AC50 was > 100 µM (inactive). Still for that read-out and setting: for `COc1cccc(NC(=O)C2CCC(CNS(=O)(=O)c3cccc4cccnc34)CC2)c1` (stereo not given) the value was > 100 µM (inactive); for `COCCNc1cc(-c2ccccc2)nc2cc(-c3cccc(F)c3)nn12`, > 100 µM (inactive). Same read-out and setting: for `Fc1cccc(Cc2c(-c3ccco3)nc3c4ccccc4ccn23)c1` the value was > 100 µM (inactive); for `O=C(CN1CCC(n2nnc3cc(F)ccc32)CC1)N1CCc2ccccc2C1`, > 100 µM (inactive); for `CCc1nc2ccccc2n1CCc1ccccc1`, > 100 µM (inactive). As to `CCOc1ccccc1N1CCN(Cc2cn[nH]c2-c2ccc(F)cc2)CC1`, the AC50 is > 100 µM (inactive). With `Cc1ccc(S(=O)(=O)N2CC(=O)Nc3ccccc32)cc1C`, the AC50 was > 100 µM (inactive). Same read-out and setting: for `COc1ccc2[nH]c3c(=O)n(CCCCC(=O)NCCC(C)C)c(=S)[nH]c3c2c1` the value was > 100 µM (inactive); for `O=C(NCc1ccccc1Cl)[C@H]1CCCN1C(=O)[C@H]1CCCN1C(=O)c1cccc2ccccc12`, > 100 µM (inactive). With `O=C(CN1CCCCC1)Nc1ccccc1-c1ccccc1`, the AC50 is > 100 µM (inactive).

For `O=C(CCC(=O)N1CCN(c2ccc(F)cc2)CC1)N1CCN(c2ccc(F)cc2)CC1`, the AC50 is > 100 µM (inactive). `COc1ccccc1CN1Cc2ccccc2Oc2ccccc2S1(=O)=O`: the AC50 was > 100 µM (inactive). For `O=C(O)CC1(CC(=O)NCc2ccc(-c3cccs3)cc2)CCCCC1`, the AC50 was > 100 µM (inactive). Regarding `CCN(C(=O)COC(=O)c1ccc([N+](=O)[O-])o1)c1cccc2ccccc12`, the AC50 is > 100 µM (inactive). On to `Nc1nc(Nc2ccccc2F)nc(N2CCOCC2)c1[N+](=O)[O-]`, for which the AC50 is > 100 µM (inactive). In the case of `Cc1cc(Br)ccc1SCC(=O)OCC(=O)NCc1ccco1`, the AC50 is > 100 µM (inactive). In the case of `COc1ccc(-c2cc(C(=O)N(C)CCc3ccc(OC)c(OC)c3)c3ccccc3n2)cc1`, the AC50 is > 100 µM (inactive).

As to `CCn1nnc(NC(=O)c2ccc([N+](=O)[O-])o2)n1`, the AC50 was > 100 µM (inactive). Still for that read-out and setting: for `CCC(=O)c1ccc(OCC(=O)Nc2nc(C)cs2)cc1` the value was > 100 µM (inactive); for `CC1(C(=O)NS(=O)(=O)c2ccc3c(c2)CCO3)CCN1C(=O)c1ccccc1CCc1ccccc1` (stereo not given), > 100 µM (inactive). As to `CCN(CC)CCN(C(=O)c1ccc2c(c1)OCCO2)c1nc2cc(C)cc(C)c2s1`, the AC50 was > 100 µM (inactive).

In the case of `CCOc1ccc2nc(SCC(=O)Nc3cccc(S(=O)(=O)NC4=NCCCCC4)c3)[nH]c2c1`, the AC50 was > 100 µM (inactive). As for `O=C(Nc1ccc2nc(-c3ccccc3)[nH]c2c1)c1cccs1`, the AC50 was > 100 µM (inactive).

In the case of `Cc1ccccc1S(=O)(=O)c1cc2ccccc2nc1N`, the AC50 is > 100 µM (inactive).

Consider `COC(=O)c1sccc1NC(=O)Cn1nnc(-c2ccccc2C)n1`, for which the AC50 was > 100 µM (inactive). Take `CCCCn1c(NS(=O)(=O)c2ccc(C)cc2)c(C(=O)OCC)c2nc3ccccc3nc21`: the AC50 is > 100 µM (inactive). `Cc1cc2nc(SCC(=O)O)nc(C)c2cc1C`: the AC50 was > 100 µM (inactive). `Cc1nn(C(C)(C)C)c(OC(=O)CC(C)C)c1S(=O)(=O)c1ccccc1`: the AC50 was > 100 µM (inactive).

The same assay, now with this note: measured here: WT GFP, test 1.
`COc1ccc2[nH]c3c(=O)n(CCCCC(=O)NCCC(C)C)c(=S)[nH]c3c2c1` registered an AC50 greater than 100 µM.
